The source of these data is article PMC5794198, “Inhibitors of Trypanosoma cruzi Sir2 related protein 1 as potential drugs against Chagas disease” (PLoS Neglected Tropical Diseases, 2018).

The inhibition is the share of the control response that was lost under treatment.

Series [1] concerns Hepatocytes. In words: HCS injury score panel in primary hepatocytes. The format is cell-based. Here is the method: (§1) In vitro assays were also performed in primary cells (hepatocytes and neurons) to evaluate BNIPSpd (9) potential toxicity: (a) host cell nuclei counting after HOECHST staining, (b) viability by measuring the metabolism of WST-8 probe, (c) apoptosis induction through caspase 3/7 activation, (d) evaluation of mitochondrial dysfunction by measuring the membrane potential using TMRM probe, (e) membrane integrity by measuring the extracellular LDH, (f) DNA damage by histone H2AX phosphorylation (exclusively in hepatocytes) and (g) imaging of neurite outgrowth (exclusively in neurons).
The assays were performed 24 hrs after cell collection and isolation. […] Then, absorbance at 450 nm was measured in order to analyse cell viability (WST-8). Cells were washed three times and analysed using the automatic fluorescence microscope BD Pathway 855. […] Data were analysed with AttoVision (Becton Dickinson). […] LDH release was measured in mU/L in culture media obtained from cells subjected to treatments for 24 hrs, by measuring the released LDH rate of oxidation of NADH to NAD^+ at 340 nm using Synergy 2 from BioTech.
DNA damage was evaluated by washing cells with PBS and fixation using paraformaldehyde 3% in PBS for 15 mins. […] To determine the DNA damage, intensity in the nuclei was analyzed using AttoVision software (Becton Dickinson). […]

The subject of series [2] is Neurons. Put plainly: HCS injury score panel in primary neurons. The format is cell-based. Here is the method:
as §1
The assays were performed 24 hrs after cell collection and isolation. For apoptosis, TMRM, HOECHST and WST-8 assays, cells were seeded at a density of 5000 cells/well in coated 96-well plates, incubated for 24 hrs with the compound and then stained during 1 hour with the following fluorescent probes: 5 μM CellEvent Caspase 3/7 Green Detection Reagent (Invitrogen) for measuring caspase 3/7 activation, 50 μM tetramethyl rhodamine methyl ester (TMRM probe, Anaspec Inc.) for measuring mitochondrial depolarization related to transient cytosolic Ca^2+ signals, 5 μg/mL of HOECHST (Sigma-Aldrich) for nuclei detection and 10 μL/well of WST-8 reagent (Sigma-Aldrich) to detect viable cells. Then, absorbance at 450 nm was measured in order to analyse cell viability (WST-8). Cells were washed three times and analysed using the automatic fluorescence microscope BD Pathway 855. Pictures were taken using a 20 X objective and 488/515 nm ex/em filters for CellEvent Caspase 3/7 reagent, 555/ 645 nm ex/em filters for TMRM and 380/460 nm ex/em filters for HOECHST. Data were analysed with AttoVision (Becton Dickinson). The LDH assay was performed according to the manufacturer's protocol, Cytotoxicity Detection Kit LDH (Roche). LDH release was measured in mU/L in culture media obtained from cells subjected to treatments for 24 hrs, by measuring the released LDH rate of oxidation of NADH to NAD^+ at 340 nm using Synergy 2 from BioTech.
For the neurite outgrowth assay, samples were washed with PBS, fixed using methanol for 10 mins at -20°C. The fixed samples were washed three times with PBS and permeabilized with PBS-Triton X-100 0.3% for 10 mins, washed three times and then blocked with BSA 0.5% in PBS for 30 mis. […] Neurite average length was calculated using the neurite outgrowth module of AttoVision software (Becton Dickinson).
Nimesulide (400 μM) was included as a positive toxicity control, and the vehicle as a negative control. The relative percentage of deviation from the negative control was quantified and assigned with a number from 0 to 5 according to the following criteria: 0 (0–20% deviation), 1 (20–40%), 2 (40–60%), 3 (60–100%), 4 (100–1000%), or 5 (>1000% deviation). […]

For series [3], the system named is T. cruzi epimastigotes, wild-type (WT). Put plainly: T. cruzi epimastigote resazurin viability assay, wild-type. The series is classed as cell-based, Trypanosoma cruzi. To be noted: CL-Brener, 64 h + 6 h resazurin; means ± SD (n = 4). As to the method: T. cruzi epimastigotes were seeded at 1.25 x 10^6 cells/mL in a 96-well plate in the presence of varying concentrations of test compounds. Following a 64-hour incubation, 15 μL of a resazurin solution (Sigma-Aldrich; 1.1 mg/mL in PBS). […] Each assay was performed in at least triplicate in parallel to the known trypanocidal agent nifurtimox.

Series [4] has as its system Neurons. Put plainly: MTT cytotoxicity on neurons. The series is classed as cell-based. Here is the method:
To evaluate toxicity towards mammalian cell lines (hepatocytes (Seralab), neurons and MDCK cells (ATCC); a renal cell line from dogs), all the compounds were assayed with MTT [66]. Additionally, for cardiotoxicity evaluation, where toxic effects in cardiomyocytes could be affecting their function before being lethal, a hERG assay was performed according to the manufacturer’s protocol Predictor hERG Fluorescence Polarization Assay (Invitrogen). Briefly, inhibition of hERG channel was analysed by competition of BNIPSpd and a high-affinity red fluorescent hERG channel ligand. BNIPSpd (9) was mixed with the ligand and membranes containing hERG channel, incubated for 2 hrs at RT and the fluorescence polarization was measured using 530 / 590 nm ex/em filters using the Synergy 2 plate reader (Biotek).

Series [5] concerns the target TcSir2rp1 (Trypanosoma cruzi, UniProt Q4DVL9). In words: TcSir2rp1 NAD+-dependent deacetylase fluorimetric assay (CycLex kit). The series is classed as biochemical.
Where [6] appears, read: combined score of cytotoxicity panel, 24 hrs.
The mark [7] stands for this setting: single dose 10 μM, 200 μM NAD+, 10 μM peptide.

Sequence of TcSir2rp1 (Q4DVL9 entry or part of it): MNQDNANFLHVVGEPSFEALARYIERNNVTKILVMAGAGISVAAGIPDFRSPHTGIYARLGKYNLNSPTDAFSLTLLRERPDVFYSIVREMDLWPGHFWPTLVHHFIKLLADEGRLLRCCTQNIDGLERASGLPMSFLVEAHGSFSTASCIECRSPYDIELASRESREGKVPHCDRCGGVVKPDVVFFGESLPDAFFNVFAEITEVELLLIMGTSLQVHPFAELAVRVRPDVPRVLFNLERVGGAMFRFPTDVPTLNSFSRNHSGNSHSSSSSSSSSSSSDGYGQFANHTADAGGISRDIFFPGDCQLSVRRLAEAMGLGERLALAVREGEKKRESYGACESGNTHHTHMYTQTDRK

As to `O=C1c2cccc3cccc(c23)C(=O)N1CCCNCCCCNCCCNCCCN1C(=O)c2cccc3cccc(c23)C1=O` [Compound 9, BNIP Spermidine], the “Injury score for hepatocytes” value in series [1] (at 50 μM) is on record as “low injury (low injury (1 to <5))”. Moreover, the “Injury score for hepatocytes” value in series [1] (setting [6]) was “low injury (low injury (1 to <5))”. In addition, in series [2] (HCS panel), the “Concentration from which toxicity was most significant in neurons” value was determined as 12.5 µM and the “Concentration up to which no effects in neurons” value came to 0.7 µM. Also, the “Injury score for neurons” value in series [2] (at higher concentrations (50 μM)) is reported as “high levels”. For the same molecule, in series [2] (setting [6]), the “Injury score for neurons” value is listed as “moderate injury (moderate injury (≥5-to <12))”. The “EC50 against T. cruzi epimastigotes WT” value in series [3] is “moderate activity”. The “Neurotoxicity (Neurons) cytotoxicity” value in series [4] is at least 3.9 µM. Also, the inhibition at 50 µM in series [5] (50 μM) was determined as 72 ± 6%. Also, in series [5] (setting [7]), the “Inhibition of NAD+-dependent deacetylase activity of TcSir2rp1” value is given as “statistically significant inhibition” and the inhibition at 10 µM is around 50%.
